Experimental data from patent US20140094424A1, “MICROBICIDAL COMPOSITIONS AND METHODS OF PRODUCTION USE THEREOF” (priority 2011, published 2014).

Legend:
[1] = tested on: Pseudomonas fluorescens (D); experiment: MBC (minimum bactericidal concentration) test in Wash NEXT reagent; format: cell-based
[2] = tested on: Penicillium notatum-KMO (R); experiment: as above; format: cell-based; conditions: for total kill at % preservative (MBC): at 14 days
Method: The stock organisms were thawed and subbed prior to beginning the MBC test. Molds were subbed to SDA plates one week before, and the bacteria were subbed to TAT agar plates 24 hours prior to the start of the test. All plates were incubated at 32 degrees C.
For the molds, each organism was inoculated into 40 ml sterile saline in a centrifuge tube to create a density of MacFarland #5. Two serial dilutions of 1:100 were then made, resulting in 10^−2 and 10^−4 concentrations. Each dilution was vortexed before it was sampled, and sterile Eppendorf pipette tips were used to make each transfer. The 10^−4 dilution was spiral plated to yield the initial inoculum concentration.
MBC trays were set up with the prepared test reagent. Using a Matrix pipettor, 100 μl aliquots of reagent were distributed into the wells, diluting the amount of preservative from 100% to 10% increments, using unpreserved reagent as the diluent. In one row, 100% non-preserved reagent acted as a positive control and served as a benchmark for a full mat of growth. In well #12H, 100 μl unpreserved reagent was pipetted, and this well was not inoculated with organisms, as it served as the negative control. Once all of the trays were prepared, the prepared bacteria/mold suspensions were poured into the MBC inoculating trays. These were placed onto the reagent trays, and 0.01 ml inoculum was introduced into the 100 μl of reagent in each well.
This was done by dipping a sterile cotton swab into each well, and absorbing all of the liquid in the well. The swab was rolled onto a TAT agar plate ensuring that the entire swab touches the agar. Plates ware incubated at 32 degrees C. for 48 hours to 7 days, depending on the organism. Observations for growth were performed by a scoring matrix using + for a full mat, +/− for some growth, a numerical value for an actual colony count, and—for no growth.
Below are tables that contain the data obtained in Example 1. The MBC test is scored by (+) indicating a full grown mat of organisms, equivalent to the organisms in the unpreserved reagent. (+/−) indicates there is some kill evident disturbing that mat or bringing the quantities down to an almost countable level. An actual number is the actual number of colonies growing at that concentration of preservative. (−) indicates no growth found. The MBC trays were stored at room temperature for the entire test.
The materials and methods and analysis of the MBC test were the same as in Example 1.

In the case of `[N-]=[N+]=[N-]` [Sodium Azide, sodium azide], the “MBC test growth score” value ([1]; 10% preservative, 8 hour) is reported as “+”, the “MBC test growth score” value ([1]; 10% preservative, 24 hour) is reported as “+” and the “MBC test growth score” value ([1]; 10% preservative, 48 hour) is reported as “+”. For the same compound, the “MBC test growth score” value ([1]; 10% preservative, 72 hour) was “+”, the “MBC test growth score” value ([1]; 20% preservative, 8 hour) was “+” and the “MBC test growth score” value ([1]; 20% preservative, 24 hour) was “+”. The “MBC test growth score” value ([1]; 20% preservative, 48 hour) was “+”, the “MBC test growth score” value ([1]; 20% preservative, 72 hour) was “+” and the “MBC test growth score” value ([1]; 30% preservative, 8 hour) was “+”. For the same compound, the “MBC test growth score” value ([1]; 30% preservative, 24 hour) was “+”, the “MBC test growth score” value ([1]; 30% preservative, 48 hour) was “+” and the “MBC test growth score” value ([1]; 30% preservative, 72 hour) was “+”. For the same compound, the “MBC test growth score” value ([1]; 40% preservative, 8 hour) was “+”, the “MBC test growth score” value ([1]; 40% preservative, 24 hour) was “+” and the “MBC test growth score” value ([1]; 40% preservative, 48 hour) was “+”. For the same compound, the “MBC test growth score” value ([1]; 40% preservative, 72 hour) was “+”, the “MBC test growth score” value ([1]; 50% preservative, 8 hour) was “+” and the “MBC test growth score” value ([1]; 50% preservative, 24 hour) was “+”. For the same compound, the “MBC test growth score” value ([1]; 50% preservative, 48 hour) was “+”, the “MBC test growth score” value ([1]; 50% preservative, 72 hour) was “+” and the “MBC test growth score” value ([1]; 60% preservative, 8 hour) was “+”. For the same compound, the “MBC test growth score” value ([1]; 60% preservative, 24 hour) was “+”, the “MBC test growth score” value ([1]; 60% preservative, 48 hour) was “+” and the “MBC test growth score” value ([1]; 60% preservative, 72 hour) was “+”. For the same compound, the “MBC test growth score” value ([1]; 70% preservative, 8 hour) was “+”, the “MBC test growth score” value ([1]; 70% preservative, 24 hour) was “+” and the “MBC test growth score” value ([1]; 70% preservative, 48 hour) was “+”. For the same compound, the “MBC test growth score” value ([1]; 70% preservative, 72 hour) was “+”, the “MBC test growth score” value ([1]; 80% preservative, 8 hour) was “+” and the “MBC test growth score” value ([1]; 80% preservative, 24 hour) was “+”. For the same compound, the “MBC test growth score” value ([1]; 80% preservative, 48 hour) was “+”, the “MBC test growth score” value ([1]; 80% preservative, 72 hour) was “+” and the “MBC test growth score” value ([1]; 90% preservative, 8 hour) was “+”. For the same compound, the “MBC test growth score” value ([1]; 90% preservative, 24 hour) was “+”, the “MBC test growth score” value ([1]; 90% preservative, 48 hour) was “+” and the “MBC test growth score” value ([1]; 90% preservative, 72 hour) was “+”. The “MBC test growth score” value ([1]; 100% preservative, 8 hour) was “+”, the “MBC test growth score” value ([1]; 100% preservative, 24 hour) was “+” and the “MBC test growth score” value ([1]; 100% preservative, 48 hour) was “+”. For the same compound, the “MBC test growth score” value ([1]; 100% preservative, 72 hour) was “+”, the “total kill at % preservative (MBC)” value ([1]; at 72 hours, listed as Na Azide) was “No kill @ 100%” and the growth ([2]; 10%, 8 hour) was “+”. For the same compound, the growth ([2]; 10%, 24 hour) was “+”, the growth ([2]; 10%, 48 hour) was “+/−” and the “growth (number of organisms counted)” value ([2]; 10%, 72 hour) was 24. The “growth (number of organisms counted)” value ([2]; 10%, 7 day) was 20, the “growth (number of organisms counted)” value ([2]; 10%, 14 day) was 14 and the growth ([2]; 20%, 8 hour) was “+”. For the same compound, the growth ([2]; 20%, 24 hour) was “+”, the growth ([2]; 20%, 48 hour) was “+/−” and the “growth (number of organisms counted)” value ([2]; 20%, 72 hour) was 22. The “growth (number of organisms counted)” value ([2]; 20%, 7 day) was 19, the “growth (number of organisms counted)” value ([2]; 20%, 14 day) was 11 and the growth ([2]; 30%, 8 hour) was “+”. The growth ([2]; 30%, 24 hour) was “+”, the growth ([2]; 30%, 48 hour) was “+/−” and the “growth (number of organisms counted)” value ([2]; 30%, 72 hour) was 22. The “growth (number of organisms counted)” value ([2]; 30%, 7 day) was 19, the “growth (number of organisms counted)” value ([2]; 30%, 14 day) was 8 and the growth ([2]; 40%, 8 hour) was “+”. The growth ([2]; 40%, 24 hour) was “+”, the growth ([2]; 40%, 48 hour) was “+/−” and the “growth (number of organisms counted)” value ([2]; 40%, 72 hour) was 18. The “growth (number of organisms counted)” value ([2]; 40%, 7 day) was 15, the “growth (number of organisms counted)” value ([2]; 40%, 14 day) was 6 and the growth ([2]; 50%, 8 hour) was “+”. The growth ([2]; 50%, 24 hour) was “+”, the growth ([2]; 50%, 48 hour) was “+/−” and the “growth (number of organisms counted)” value ([2]; 50%, 72 hour) was 15. The “growth (number of organisms counted)” value ([2]; 50%, 7 day) was 12, the growth ([2]; 50%, 14 day) was “−” and the growth ([2]; 60%, 8 hour) was “+”. For the same compound, the growth ([2]; 60%, 24 hour) was “+”, the growth ([2]; 60%, 48 hour) was “+/−” and the “growth (number of organisms counted)” value ([2]; 60%, 72 hour) was 13. The “growth (number of organisms counted)” value ([2]; 60%, 7 day) was 10, the growth ([2]; 60%, 14 day) was “−” and the growth ([2]; 70%, 8 hour) was “+”. The growth ([2]; 70%, 24 hour) was “+”, the growth ([2]; 70%, 48 hour) was “+/−” and the “growth (number of organisms counted)” value ([2]; 70%, 72 hour) was 11. The “growth (number of organisms counted)” value ([2]; 70%, 7 day) was 9, the growth ([2]; 70%, 14 day) was “−” and the growth ([2]; 80%, 8 hour) was “+”. For the same compound, the growth ([2]; 80%, 24 hour) was “+”, the growth ([2]; 80%, 48 hour) was “+/−” and the “growth (number of organisms counted)” value ([2]; 80%, 72 hour) was 9. For the same compound, the “growth (number of organisms counted)” value ([2]; 80%, 7 day) was 6, the growth ([2]; 80%, 14 day) was “−” and the growth ([2]; 90%, 8 hour) was “+”. For the same compound, the growth ([2]; 90%, 24 hour) was “+”, the growth ([2]; 90%, 48 hour) was “+/−” and the “growth (number of organisms counted)” value ([2]; 90%, 72 hour) was 7. For the same compound, the “growth (number of organisms counted)” value ([2]; 90%, 7 day) was 4, the growth ([2]; 90%, 14 day) was “−” and the growth ([2]; 100%, 8 hour) was “+”. The growth ([2]; 100%, 24 hour) was “+”, the growth ([2]; 100%, 48 hour) was “+/−” and the “growth (number of organisms counted)” value ([2]; 100%, 72 hour) was 6. The “growth (number of organisms counted)” value ([2]; 100%, 7 day) was 3, the growth ([2]; 100%, 14 day) was “−” and the “total kill at % preservative (MBC)” value [2] was “had total kill at 50% preservative at 14”. For the same compound, the “total kill at % preservative (MBC)” value ([2]; listed as Na Azide) was “Total kill @ 50%”.
